In ChEMBL document CHEMBL4411312, “Design, Synthesis, and Biological Evaluation of New 1-(Aryl-1 H-pyrrolyl)(phenyl)methyl-1 H-imidazole Derivatives as Antiprotozoal Agents” (J Med Chem, 2019):
Active and inactive are the calls of the source. The calls are words filed in the database; no cut-off is given here.

How the values were obtained:
[1] = system: Trypanosoma brucei rhodesiense; test: Antiprotozoal activity against Trypanosoma brucei rhodesiense STIB900 trypomastigotes after 72 hrs by Alamar Blue dye-based fluorometric analysis; format: functional, organism-based; conditions: STIB900, 72 h
Trypanosoma cruzi [2] = test: Antiprotozoal activity against Trypanosoma cruzi Tulahuen C2C4 amastigotes infected in rat L6 cells after 96 hrs by inverted microscopic analysis; format: functional, organism-based; conditions: Tulahuen C2C4, L6, 96 h
Leishmania donovani = test: Antiprotozoal activity against Leishmania donovani MHOM/ET/67/L82 axenic amastigote after 72 hrs by inverted microscopic analysis; format: functional, organism-based; conditions: MHOM/ET/67/L82, 72 h
Plasmodium falciparum = test: Antiprotozoal activity against erythrocytic stage of Plasmodium falciparum K1 after 48 hrs by [3H]- hypoxanthine incorporation assay; format: functional, organism-based
[3] = Cytotoxicity against rat L6 cels assessed as reduction in cell viability after 72 hrs by Alamar Blue dye-based fluorometric analysis; conditions: L6 cells
[4] = Selectivity index, ratio of CC50 for rat L6 cels to IC50 for Trypanosoma brucei rhodesiense STIB900 trypomastigotes; format: toxicity; conditions: L6 cells, read-out: Ratio IC50
[5] = Selectivity index, ratio of CC50 for rat L6 cels to IC50 for Leishmania donovani MHOM/ET/67/L82 axenic amastigote; format: toxicity; conditions: L6 cells, read-out: Ratio IC50
[6] = Selectivity index, ratio of CC50 for rat L6 cels to IC50 for erythrocytic stage of Plasmodium falciparum K1; format: toxicity; conditions: L6 cells, read-out: Ratio IC50
Trypanosoma cruzi [7] = test: Potency index, ratio of benznidazole IC50 to compound IC50 for Trypanosoma cruzi Tulahuen C2C4 amastigotes infected in rat L6 cells after 96 hrs by inverted microscopic analysis; format: functional
[8] = target: Sterol 14-alpha demethylase (Trypanosoma cruzi (strain CL Brener)) (UniProt Q7Z1V1); test: Binding affinity to Trypanosoma cruzi CYP51 at 5 to 10 uM by UV-vis spectrophotometry
Cytochrome P450 3A4 = Cytochrome P450 3A4 (Homo sapiens, UniProt P08684); test: Inhibition of human CYP3A4 in presence of NADPH by luciferase reporter gene assay; format: ADME
Cytochrome P450 1A2 = target: T1, Cytochrome P450 1A2 (Homo sapiens, UniProt P05177); test: Inhibition of human CYP1A2 in presence of NADPH by luciferase reporter gene assay; format: ADME
T1 sequence (P05177 whole entry): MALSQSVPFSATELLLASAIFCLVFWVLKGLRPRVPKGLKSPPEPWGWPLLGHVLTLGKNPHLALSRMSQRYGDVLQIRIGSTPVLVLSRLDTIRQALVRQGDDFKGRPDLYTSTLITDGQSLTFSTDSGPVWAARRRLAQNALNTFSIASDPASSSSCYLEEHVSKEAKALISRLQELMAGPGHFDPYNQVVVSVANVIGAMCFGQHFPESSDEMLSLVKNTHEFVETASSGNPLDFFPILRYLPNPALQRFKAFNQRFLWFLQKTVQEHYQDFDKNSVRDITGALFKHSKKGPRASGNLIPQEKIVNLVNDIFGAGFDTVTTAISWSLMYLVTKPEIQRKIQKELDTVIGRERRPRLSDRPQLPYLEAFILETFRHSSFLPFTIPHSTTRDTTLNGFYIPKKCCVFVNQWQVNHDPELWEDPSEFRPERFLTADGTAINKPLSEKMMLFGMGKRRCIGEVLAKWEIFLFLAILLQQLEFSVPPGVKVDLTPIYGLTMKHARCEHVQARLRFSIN

Cytochrome P450 2D6 = Cytochrome P450 2D6 (Homo sapiens, UniProt P10635); test: Inhibition of human CYP2D6 in presence of NADPH by luciferase reporter gene assay; format: ADME
Trypanosoma cruzi [9] = test: Antiprotozoal activity against Trypanosoma cruzi CL Brener trypomastigotes infected in BALB/c mouse assessed as reduction in parasitemia at 25 mg/kg, ip bid treated for 4 consecutive days starting at 3 days post infection by bioluminescence assay relative to control; format: functional; design: scale not given: the % may be the effect or the level left
[10] = Toxicity in BALB/c mouse infected with Trypanosoma cruzi CL Brener trypomastigotes assessed as hunched posture at 25 mg/kg, ip bid treated for 4 consecutive days starting at 3 days post infection; format: organism-based; conditions: in vivo, 72 h
[11] = Toxicity in BALB/c mouse infected with Trypanosoma cruzi CL Brener trypomastigotes assessed as lack of grooming at 25 mg/kg, ip bid treated for 4 consecutive days starting at 3 days post infection; format: organism-based; conditions: in vivo, 72 h
[12] = Toxicity in BALB/c mouse infected with Trypanosoma cruzi CL Brener trypomastigotes assessed as reduced mobility at 25 mg/kg, ip bid treated for 4 consecutive days starting at 3 days post infection; format: organism-based; conditions: in vivo, 72 h
[13] = Toxicity in BALB/c mouse infected with Trypanosoma cruzi CL Brener trypomastigotes assessed as loss of body weight at 25 mg/kg, ip bid treated for 4 consecutive days starting at 3 days post infection; format: organism-based; conditions: in vivo, 72 h

Sequence of Sterol 14-alpha demethylase (Trypanosoma cruzi (strain CL Brener)) (Q7Z1V1 whole entry, looked up): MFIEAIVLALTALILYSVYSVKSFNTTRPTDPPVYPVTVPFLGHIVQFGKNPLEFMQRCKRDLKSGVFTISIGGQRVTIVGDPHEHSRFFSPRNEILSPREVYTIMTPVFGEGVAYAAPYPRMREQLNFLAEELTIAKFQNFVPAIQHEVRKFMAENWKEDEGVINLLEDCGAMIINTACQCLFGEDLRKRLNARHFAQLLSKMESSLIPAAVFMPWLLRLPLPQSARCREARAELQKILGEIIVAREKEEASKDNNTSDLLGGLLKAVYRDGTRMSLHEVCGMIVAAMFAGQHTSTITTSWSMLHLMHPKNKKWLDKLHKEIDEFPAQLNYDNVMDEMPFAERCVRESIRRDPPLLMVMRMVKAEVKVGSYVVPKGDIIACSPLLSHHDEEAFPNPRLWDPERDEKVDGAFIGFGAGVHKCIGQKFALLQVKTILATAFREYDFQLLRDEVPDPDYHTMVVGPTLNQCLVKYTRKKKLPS
Sequence of Cytochrome P450 3A4 (P08684 whole entry): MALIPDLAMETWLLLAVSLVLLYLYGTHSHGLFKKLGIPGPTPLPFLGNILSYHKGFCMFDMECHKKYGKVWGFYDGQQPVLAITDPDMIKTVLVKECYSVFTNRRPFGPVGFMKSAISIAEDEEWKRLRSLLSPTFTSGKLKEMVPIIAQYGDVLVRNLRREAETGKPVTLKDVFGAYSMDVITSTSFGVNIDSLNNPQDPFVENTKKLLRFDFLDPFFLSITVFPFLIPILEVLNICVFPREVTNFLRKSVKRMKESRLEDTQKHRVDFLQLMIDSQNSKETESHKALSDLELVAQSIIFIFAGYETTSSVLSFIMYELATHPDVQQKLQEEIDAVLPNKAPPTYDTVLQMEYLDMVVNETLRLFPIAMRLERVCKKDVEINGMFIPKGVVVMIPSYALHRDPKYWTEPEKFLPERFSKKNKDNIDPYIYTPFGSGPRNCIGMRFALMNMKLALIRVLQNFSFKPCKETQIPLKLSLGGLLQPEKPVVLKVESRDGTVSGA
Sequence of Cytochrome P450 2D6 (P10635 whole entry): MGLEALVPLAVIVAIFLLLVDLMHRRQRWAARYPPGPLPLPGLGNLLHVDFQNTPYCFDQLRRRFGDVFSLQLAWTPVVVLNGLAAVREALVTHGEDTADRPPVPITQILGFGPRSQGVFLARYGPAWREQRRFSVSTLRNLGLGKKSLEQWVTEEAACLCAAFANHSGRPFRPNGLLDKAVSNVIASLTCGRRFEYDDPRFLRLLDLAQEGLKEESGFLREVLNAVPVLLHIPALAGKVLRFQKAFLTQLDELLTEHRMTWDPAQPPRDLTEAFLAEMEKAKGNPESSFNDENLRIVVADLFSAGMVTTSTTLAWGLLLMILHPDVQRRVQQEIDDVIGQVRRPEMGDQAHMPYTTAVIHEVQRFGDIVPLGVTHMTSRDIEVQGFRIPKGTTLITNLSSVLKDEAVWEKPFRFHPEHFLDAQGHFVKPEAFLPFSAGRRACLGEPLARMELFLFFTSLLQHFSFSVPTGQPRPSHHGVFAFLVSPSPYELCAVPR

Row | IC50 [1] [µM] | IC50 (Trypanosoma cruzi [2]) [µM] | IC50 (Leishmania donovani) [µM] | IC50 (Plasmodium falciparum) [µM] | Activity [8] | IC50 (Cytochrome P450 3A4) [µM] | IC50 (Cytochrome P450 1A2) [µM] | IC50 (Cytochrome P450 2D6) [µM] | SMILES | CC50 at 72 h [3] [µM] | selectivity ratio [4] | selectivity ratio [5] | selectivity ratio [6] | Ratio IC50 (Trypanosoma cruzi [7]) | Activity (Trypanosoma cruzi [9]) [%] | Activity [10] | Activity [11] | Activity [12] | Activity [13]
1 | 11.8 | 3.6 | 17.7 | 2.33 | – | – | – | – | O=[N+]([O-])c1ccc(C(c2ccn(-c3ccc([N+](=O)[O-])cc3)c2)n2ccnc2)cc1 (centres undefined) | 159 | 13 | 9 | 68 | – | – | – | – | – | –
2 | 34.4 | 0.203 | 15 | 0.059 | – | – | – | – | Clc1ccc(C(c2c[nH]cc2-c2ccc(Cl)cc2-c2ccccc2)n2ccnc2)cc1 (centres undefined) | 14.9 | – | – | 253 | 4 - 12 | – | – | – | – | –
3 | 35.7 | 3.9 | 30.4 | 2.18 | – | – | – | – | N#Cc1ccc(C(c2ccn(-c3ccc(Cl)cc3)c2)n2ccnc2)cc1 (centres undefined) | 42.4 | 1 | 1 | 19 | – | – | – | – | – | –
4 | – | – | – | – | – | – | – | – | CCN(CC)CCCC(C)Nc1ccnc2cc(Cl)ccc12 (centres undefined) [CHLOROQUINE] | 92.8 | – | – | – | – | – | – | – | – | –
5 | 11.9 | 12 | 10.8 | 4.53 | – | – | – | – | Clc1ccc(C(c2c[nH]cc2-c2ccc(Cl)cc2-n2cccc2)n2ccnc2)c(Cl)c1 (centres undefined) | 7.67 | – | – | 2 | – | – | – | – | – | –
6 | – | – | – | – | – | – | – | – | O=C(Cn1ccnc1[N+](=O)[O-])NCc1ccccc1 [BENZNIDAZOLE] | > 385 | – | – | – | – | – | – | – | – | –
7 | 8.31 | 0.027 | 2.78 | 0.27 | – | – | – | – | Clc1ccc(C(c2c[nH]cc2-c2ccc(Cl)cc2-c2cccs2)n2ccnc2)c(Cl)c1 (centres undefined) | 4.93 | – | 2 | 18 | 61 | – | – | – | – | –
8 | 31.1 | > 74.7 | 21.3 | 1.81 | – | – | – | – | FC(F)(F)c1ccc(-n2ccc(C(c3ccc(Cl)cc3)n3ccnc3)c2)cc1 (centres undefined) | 40.1 | 1 | 2 | 22 | – | – | – | – | – | –
9 | 18.8 | 0.05 | 5.64 | 0.29 | – | – | – | – | Cc1ccc(-c2c[nH]cc2C(c2ccc(Cl)cc2Cl)n2ccnc2)cc1 (centres undefined) | 18.4 | – | 3 | 63 | 57 | – | – | – | – | –
10 | 27.8 | – | 84.4 | 4.09 | – | – | – | – | N#Cc1ccc(C(c2ccn(-c3ccc(C#N)cc3)c2)n2ccnc2)cc1 (centres undefined) | 139 | 5 | 2 | 34 | – | – | – | – | – | –
11 | 40.6 | 6.18 | 25.2 | 4.57 | – | – | – | – | O=[N+]([O-])c1ccc(-n2ccc(C(c3ccc(Cl)cc3)n3ccnc3)c2)cc1 (centres undefined) | 82.4 | 2 | 3 | 18 | – | – | – | – | – | –
12 | 24.2 | 0.066 | 5.22 | 0.28 | – | – | – | – | CC(C)c1ccc(-c2c[nH]cc2C(c2ccc(Cl)cc2Cl)n2ccnc2)cc1 (centres undefined) | 12.7 | – | 2 | 45 | 57 | – | – | – | – | –
13 | 22.5 | 0.066 | 4.87 | 0.3 | – | – | – | – | CCc1ccc(-c2c[nH]cc2C(c2ccc(Cl)cc2Cl)n2ccnc2)cc1 (centres undefined) | 13.3 | – | 3 | 45 | 57 | – | – | – | – | –
14 | – | – | – | – | – | – | – | – | CCCCCCCCCCCCCCCCOP(=O)([O-])OCC[N+](C)(C)C [MILTEFOSINE] | 137 | – | 245 | – | – | – | – | – | – | –
15 | 29 | 0.142 | 13.9 | 0.096 | – | – | – | – | Clc1ccc(C(c2c[nH]cc2-c2ccc(Cl)cc2-c2ccccc2)n2ccnc2)c(Cl)c1 (centres undefined) | 14.3 | – | 1 | 149 | 4 - 12 | – | – | – | – | –
16 | 16.5 | 0.048 | 4.83 | 0.33 | – | – | – | – | Clc1ccc(C(c2c[nH]cc2-c2ccc(Cl)c3ccccc23)n2ccnc2)c(Cl)c1 (centres undefined) | 4.9 | – | 1 | 15 | – | – | – | – | – | –
17 | – | 0.043 | – | – | – | – | – | – | CSc1ccc(-c2c[nH]cc2C(c2ccc(Cl)cc2Cl)n2ccnc2)cc1 (centres undefined) | – | – | – | – | 57 | – | – | – | – | –
18 | 15.6 | 0.018 | 6.41 | 0.34 | Active | – | – | – | Clc1ccc(C(c2c[nH]cc2-c2ccc3ccccc3c2)n2ccnc2)c(Cl)c1 (centres undefined) | 6.54 | – | 1 | 19 | – | – | – | – | – | –
19 | 33 | 0.029 | 10.2 | 1.3 | – | – | – | – | CS(=O)(=O)c1ccc(-c2c[nH]cc2C(c2ccc(Cl)cc2Cl)n2ccnc2)cc1 (centres undefined) | 68 | 2 | 7 | 52 | 57 | – | – | – | – | –
20 | 40 | 0.003 | 5.7 | 1.41 | Active | 1.1 | 2 | 3 | Cn1cc(C(c2ccc(Cl)cc2)n2ccnc2)cc1-c1ccc(Cl)cc1 (centres undefined) | 12.1 | – | 2 | 9 | 330 - 825 | 99.4 | Non-Toxic | Non-Toxic | Non-Toxic | Non-Toxic
21 | 14.5 | 10.2 | 31.1 | 4.99 | – | – | – | – | O=[N+]([O-])c1ccc(-n2ccc(C(c3ccccc3)n3ccnc3)c2)cc1 (centres undefined) | 60.4 | 4 | 2 | 12 | – | – | – | – | – | –
22 | – | – | – | – | – | – | – | – | Nc1nc(N)nc(Nc2ccc([As]3SCC(CO)S3)cc2)n1 (centres undefined) [MELARSOPROL] | 28.9 | 3280 | – | – | – | – | – | – | – | –
23 | 28.4 | 0.05 | 5.51 | 0.46 | – | – | – | – | COc1ccc(-c2c[nH]cc2C(c2ccc(Cl)cc2Cl)n2ccnc2)cc1 (centres undefined) | 14.8 | – | 3 | 32 | 57 | – | – | – | – | –
24 | 38.7 | 0.002 | 2.16 | 0.63 | Active | 0.9 | 1.2 | 2 | C=CCn1cc(C(c2ccc(Cl)cc2)n2ccnc2)cc1-c1ccc(Cl)cc1 (centres undefined) | 7.76 | – | 4 | 12 | 330 - 825 | – | – | – | – | –

Row | SMILES | IC50 [1] [µM] | IC50 (Trypanosoma cruzi [2]) [µM] | IC50 (Leishmania donovani) [µM] | IC50 (Plasmodium falciparum) [µM] | Activity [8] | IC50 (Cytochrome P450 3A4) [µM] | IC50 (Cytochrome P450 1A2) [µM] | IC50 (Cytochrome P450 2D6) [µM] | CC50 at 72 h [3] [µM] | selectivity ratio [4] | selectivity ratio [5] | selectivity ratio [6] | Ratio IC50 (Trypanosoma cruzi [7]) | Activity (Trypanosoma cruzi [9]) [%] | Activity [10] | Activity [11] | Activity [12] | Activity [13]
25 | Clc1ccc(-c2c[nH]cc2[C@@H](c2ccc(Cl)cc2Cl)n2ccnc2)cc1 | 12.2 | 0.017 | 5.02 | 0.11 | – | – | – | – | 5.56 | – | 1 | 51 | – | – | – | – | – | –
26 | Clc1ccc(-c2c[nH]cc2[C@H](c2ccc(Cl)cc2Cl)n2ccnc2)cc1 | 9.21 | 0.0009 | – | 0.092 | – | – | – | – | 2.56 | – | – | 28 | – | – | – | – | – | –
27 | C[C@@H]1CC[C@H]2[C@@H](C)C(=O)O[C@@H]3O[C@@]4(C)CC[C@@H]1[C@]32OO4 [ARTEMISININ] | – | – | – | 0.007 | – | – | – | – | > 350 | – | – | > 50000 | – | – | – | – | – | –
